ChEMBL document CHEMBL1128137, “A novel series of highly potent 5-lipoxygenase inhibitors; 2-aryldienylbenzoxazoles” (Bioorg Med Chem Lett, 1995)

biological target: T1, Polyunsaturated fatty acid 5-lipoxygenase (Rattus norvegicus, UniProt P12527); test: Inhibition of 5-lipoxygenase of rat basophilic leukemia (RBL) cell cytosolic enzymes; parameters: species or system RBL-1
T1 sequence (P12527 whole entry): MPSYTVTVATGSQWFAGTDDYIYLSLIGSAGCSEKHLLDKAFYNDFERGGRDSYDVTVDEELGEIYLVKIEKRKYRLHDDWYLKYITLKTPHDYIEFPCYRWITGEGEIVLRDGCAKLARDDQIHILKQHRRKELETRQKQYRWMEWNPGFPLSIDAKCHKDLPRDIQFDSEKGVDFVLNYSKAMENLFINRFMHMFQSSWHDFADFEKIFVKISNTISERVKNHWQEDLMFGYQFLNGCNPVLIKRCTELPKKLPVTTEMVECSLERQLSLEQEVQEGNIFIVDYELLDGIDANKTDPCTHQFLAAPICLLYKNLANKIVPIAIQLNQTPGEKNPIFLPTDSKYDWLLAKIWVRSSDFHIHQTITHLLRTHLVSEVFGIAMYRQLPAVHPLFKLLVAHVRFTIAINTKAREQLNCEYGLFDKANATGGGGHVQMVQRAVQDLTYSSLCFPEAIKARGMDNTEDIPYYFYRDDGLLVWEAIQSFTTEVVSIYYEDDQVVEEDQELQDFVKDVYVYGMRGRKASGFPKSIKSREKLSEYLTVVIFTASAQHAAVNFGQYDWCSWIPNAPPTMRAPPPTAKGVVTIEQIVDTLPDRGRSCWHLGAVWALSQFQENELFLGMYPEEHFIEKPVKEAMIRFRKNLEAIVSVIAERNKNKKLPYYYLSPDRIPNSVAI

**Q.** `COc1cc(/C=C/C=C/c2nc3cc(Cl)ccc3o2)ccc1O` was tested. Which IC50 did it give?
**A.** The IC50 was 380 nM.

**Q.** Which IC50 does the source give for `COc1cc(/C=C/C=C/C(=O)NCCN2CCC(OC(c3ccccc3)c3ccccc3)CC2)ccc1O` here?
**A.** Its IC50 is 150 nM.

**Q.** For `Oc1ccc(/C=C/C=C/c2nc3ccccc3o2)cc1O`, which IC50 is on record?
**A.** The IC50 was 30 nM.

**Q.** Which IC50 does the source give for `COc1cc(/C=C/C=C/c2nc3ccccc3o2)ccc1O` here?
**A.** The IC50 was 330 nM.

**Q.** With `COc1cc(/C=C/C=C/c2nc3ccc(CO)cc3o2)ccc1O` as the compound, how does the IC50 read?
**A.** Its IC50 is 300 nM.

**Q.** For `COc1cc(/C=C/C=C/c2nc3ncccc3o2)ccc1O`, which IC50 is on record?
**A.** Its IC50 is 370 nM.

**Q.** How did the IC50 turn out when `COc1cc(/C=C/C=C/c2nc3c(ccc4ccccc43)o2)ccc1O` was run?
**A.** Its IC50 is 170 nM.

**Q.** With `COc1cc(/C=C/C=C/c2nc3cc(C(=O)O)ccc3o2)ccc1O` as the compound, how does the IC50 read?
**A.** Its IC50 is 5800 nM.

**Q.** Which IC50 does the source give for `COc1cc(/C=C/C=C/c2nc3cc(CO)ccc3o2)ccc1O` here?
**A.** Its IC50 is 260 nM.

**Q.** Which IC50 does the source give for `CCOC(=O)c1ccc2nc(/C=C/C=C/c3ccc(O)c(OC)c3)oc2c1` here?
**A.** The IC50 was 130 nM.

**Q.** How did the IC50 turn out when `CCOC(=O)c1ccc2oc(/C=C/C=C/c3ccc(O)c(OC)c3)nc2c1` was run?
**A.** The IC50 was 250 nM.

**Q.** With `COc1cc(/C=C/C=C/c2nc3cc(C)ccc3o2)ccc1O` as the compound, how does the IC50 read?
**A.** Its IC50 is 290 nM.

**Q.** Which IC50 does the source give for `CCOC(=O)c1ccc2oc(/C=C/C=C/c3ccc(O)c(O)c3)nc2c1` here?
**A.** Its IC50 is 20 nM.

**Q.** For `CCOC(=O)/C=C/c1ccc(O)c(O)c1` [ETHYL CAFFEATE], which IC50 is on record?
**A.** The IC50 was 1150 nM.
